Source: paper PMC7673538 (PLoS Biology, 2020)
Where “and” joins values, the source holds several entries; their conditions need not be identical. Equal values may be shown once. Read-outs that look alike come from different tables or passages of the source.

Columns and labels:
EV-D68 = test: microbe, parasite or virus in culture; format: cell-based, enterovirus D68; conditions: for EC50: Enterovirus D
CV-A24 = test: microbe, parasite or virus in culture; format: cell-based, coxsackievirus A24
CV-B3 [1] = test: microbe, parasite or virus in culture; format: cell-based, coxsackievirus B3; conditions: Enterovirus B
in vitro = conditions: human
HRV-B14 [2] = test: microbe, parasite or virus in culture; format: cell-based, human rhinovirus; conditions: Human rhinovirus sp.
HRV-B14 [3] = format: cell-based, human rhinovirus
EV-D68 (strain Fermon) = format: cell-based, enterovirus D68
HRV-A2 = test: microbe, parasite or virus in culture; format: cell-based, human rhinovirus; conditions: Human rhinovirus sp., HRVA2, HeLa R19, read-out: EC50 HRV-A2
human SERT = biological target: T1, human SERT (Homo sapiens, UniProt P31645); format: cell-based
T1 construct: expressed in transfected cells; host or cells: HEK293 (gift of Dr. Hoener, F. Hoffmann-La Roche)
T1 sequence (P31645 whole entry): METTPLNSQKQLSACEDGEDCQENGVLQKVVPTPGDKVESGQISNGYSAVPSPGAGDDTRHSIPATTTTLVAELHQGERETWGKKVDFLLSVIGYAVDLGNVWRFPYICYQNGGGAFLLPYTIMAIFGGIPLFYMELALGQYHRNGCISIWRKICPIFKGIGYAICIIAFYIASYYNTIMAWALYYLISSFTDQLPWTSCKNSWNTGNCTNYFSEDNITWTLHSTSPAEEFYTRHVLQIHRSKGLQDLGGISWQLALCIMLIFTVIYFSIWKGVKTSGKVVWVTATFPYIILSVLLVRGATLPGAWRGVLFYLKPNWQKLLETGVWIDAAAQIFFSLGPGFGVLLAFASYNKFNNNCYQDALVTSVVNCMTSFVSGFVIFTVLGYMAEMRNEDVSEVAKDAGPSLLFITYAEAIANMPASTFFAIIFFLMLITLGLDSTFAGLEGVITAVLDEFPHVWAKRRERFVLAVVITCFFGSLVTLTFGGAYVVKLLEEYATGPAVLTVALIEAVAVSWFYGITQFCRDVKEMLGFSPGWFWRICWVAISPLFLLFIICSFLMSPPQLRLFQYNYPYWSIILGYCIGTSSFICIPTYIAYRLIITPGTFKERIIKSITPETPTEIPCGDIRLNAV

CV-A24 (strain Joseph) = format: cell-based, coxsackievirus A24
CV-B3 [4] = test: microbe, parasite or virus in culture; format: cell-based, coxsackievirus B3

## O=C(c1ccco1)N(Cc1ccc(C(F)(F)F)cc1)c1ccccc1 [Compound 19d, N-phenyl-N-(4-(trifluoromethyl)benzyl)furan-2-carboxamide]
EV-D68
  resistance of reverse-engineered EV-D68 2C T196S (in words): provided 19d resistance, although resistance was rather moderate
  resistance of reverse-engineered EV-D68 2C V96M (in words): provided 19d resistance, although resistance was rather moderate
EV-D68; 0.2344 µM
  multicycle replication assay read-out, EV-D68 Fermon: 10 and 12
EV-D68; 0.4688 µM
  multicycle replication assay read-out, EV-D68 Fermon: 22 and 14 and 23
EV-D68; 0.9375 µM
  multicycle replication assay read-out, EV-D68 Fermon: 10 and 16.5525
EV-D68; 1.875 µM
  multicycle replication assay read-out, EV-D68 Fermon: 102.405 and 111.906 and 97.379
EV-D68; 3.75 µM
  multicycle replication assay read-out, EV-D68 Fermon: 102.405 and 111.906 and 97.379
EV-D68; 7.5 µM
  multicycle replication assay read-out, EV-D68 Fermon: 109.948 and 106.039 and 109.278
EV-D68; 15 µM
  multicycle replication assay read-out, EV-D68 Fermon: 109.948 and 106.039 and 109.278
EV-D68; 30 µM
  multicycle replication assay read-out, EV-D68 Fermon: 109.948 and 106.039 and 109.278
EV-D68; EVD68, HeLa R19, […], read-out: EC50 Exp1
  EC50: 3.84 µM
EV-D68; EVD68, HeLa R19, read-out: EC50 EV-D68
  EC50: 1.37 ± 0.02 µM
EV-D68; EVD68, HeLa R19, read-out: EC50 EV-D68 strain 4310900947
  EC50: 4.6 ± 0.37 µM
EV-D68; EVD68, HeLa R19, read-out: EC50 EV-D68 strain 4310901348
  EC50: 3.55 ± 0.43 µM
EV-D68; EVD68, HeLa R19, read-out: EC50 EV-D68 strain 4310902042
  EC50: 3.53 ± 0.41 µM
EV-D68; EVD68, HeLa R19, read-out: EC50 EV-D68 strain 4310902284
  EC50: 1.82 ± 0.57 µM
EV-D68; EVD68, HeLa R19, read-out: EC50 EV-D68 strain 4311000742
  EC50: 3.91 ± 0.13 µM
EV-D68; EVD68 / genotype 2c, HeLa R19, read-out: EC50 EV-D68 WT
  EC50: 1.55 ± 0.17 µM
CV-A24; Enterovirus C, CVA24, HeLa R19, read-out: EC50 CV-A24
  EC50: 19.5 ± 0.55 µM
CV-A24; Enterovirus C, CVA24, HeLa R19, read-out: EC50 CV-A24 strain Joseph
  EC50: 18.7 ± 0.67 µM
CV-A24; Enterovirus C, CVA24, HeLa R19, read-out: EC50 Exp1
  EC50: 19 µM
CV-A24; Enterovirus C, CVA24, HeLa R19, read-out: EC50 Exp2
  EC50: 20.1 µM
CV-A24; read-out: EC50 Exp1
  EC50: 18 µM
CV-A24; read-out: EC50 Exp2
  EC50: 19.3 µM
CV-B3 [1]; CVB3, HAP1, read-out: EC50 Hap1 Average
  EC50: 0.75 µM
CV-B3 [1]; CVB3, HAP1, read-out: Exp 1 EC50 Hap1
  EC50: 0.69 µM
CV-B3 [1]; CVB3, HAP1, read-out: Exp 2 EC50 Hap1
  EC50: 0.8 µM
In vitro; CC50 Hap1 Average
  CC50: 97.8 µM
In vitro; Exp 1 CC50 Hap1
  CC50: 97.5 µM
In vitro; Exp 2 CC50 Hap1
  CC50: 98.1 µM
HRV-B14 [2]; HRVB14, HeLa R19, read-out: EC50 Exp1
  EC50: 4.76 µM
HRV-B14 [2]; HRVB14, HeLa R19, read-out: EC50 Exp2
  EC50: 3.61 µM
HRV-B14 [2]; HRVB14, HeLa R19, read-out: EC50 HRV-B14
  EC50: 4.19 ± 0.58 µM
HRV-B14 [3]; compound concentration 0.001 µM
  virus titer, TCID50/ml (Figure 2A): 13548130 TCID50/ml and 11698240 TCID50/ml
HRV-B14 [3]; compound concentration 0.01 µM
  virus titer, TCID50/ml (Figure 2A): 16982410 TCID50/ml and 30000000 TCID50/ml and 31612280 TCID50/ml
HRV-B14 [3]; compound concentration 0.1 µM
  virus titer, TCID50/ml (Figure 2A): 13548130 TCID50/ml and 11698240 TCID50/ml
HRV-B14 [3]; compound concentration 0.3 µM
  virus titer, TCID50/ml (Figure 2A): 13548130 TCID50/ml and 11698240 TCID50/ml
HRV-B14 [3]; compound concentration 1 µM
  virus titer, TCID50/ml (Figure 2A): 348134 TCID50/ml and 316228 TCID50/ml and 354813 TCID50/ml
EV-D68 (strain Fermon); compound concentration 0.01 µM
  virus titer, TCID50/ml (Figure 2A): 6000000 TCID50/ml and 4677352 TCID50/ml and 3162278 TCID50/ml
EV-D68 (strain Fermon); compound concentration 0.1 µM
  virus titer, TCID50/ml (Figure 2A): 5888437 TCID50/ml and 6000000 TCID50/ml and 3162278 TCID50/ml
EV-D68 (strain Fermon); compound concentration 0.3 µM
  virus titer, TCID50/ml (Figure 2A): 6000000 TCID50/ml and 3548134 TCID50/ml
EV-D68 (strain Fermon); compound concentration 10 µM
  virus titer, TCID50/ml (Figure 2A): 31622.8 TCID50/ml and 21379.6 TCID50/ml and 35481.3 TCID50/ml
HRV-A2
  EC50: 15.2 ± 1.13 µM
Human SERT; 1µM, Control = 100.00
  SERT, Mean (Figure 8B): 104.62
Human SERT; 1µM, Control = 100%
  SERT, Mean as % (Figure 8B): 105%
Human SERT; 100µM
  SERT, Mean (Figure 8B): 107.21
  SERT, Mean as % (Figure 8B): 107%
Human SERT; HEK293 cells expressing human SERT, 1 and 100 μM
  inhibition of SERT-mediated uptake (in words): neither 12a, 19b, 19d, nor the combined compound 12b inhibited
CV-A24 (strain Joseph); compound concentration 10 µM
  virus titer, TCID50/ml (Figure 2A): 316.228 TCID50/ml
CV-A24 (strain Joseph); compound concentration 30 µM
  virus titer, TCID50/ml (Figure 2A): 316.228 TCID50/ml
CV-A24 (strain Joseph); compound concentration 100 µM
  virus titer, TCID50/ml (Figure 2A): 316.228 TCID50/ml
CV-A24 (strain Joseph); compound concentration 150 µM
  virus titer, TCID50/ml (Figure 2A): 316.228 TCID50/ml
CV-B3 [4]
  effect of the substitution on antiviral activity against CV-B3 (in words): only marginally affected antiviral activity
CV-B3 [4]; Enterovirus B, CVB3, HeLa R19, […], read-out: EC50 Exp1
  EC50: 7.98 µM
